From patent US4876359A, “Novel gamma-butyrolactone derivatives” (SS Pharmaceutical Co., Ltd., priority 1986, dated 1989)

Legend:
[1] = biological target: T1, Angiotensin Converting Enzyme (ACE) (Oryctolagus cuniculus, UniProt P12822); test: ACE inhibitory activity (Method 1, rabbit lung enzyme, hippurylglycylglycine); format: biochemical; conditions: pH 8.3, 37° C., 30 minutes, hydrochlorides, read-out: ACE inhibitory activity concentration (IC50)
T1 construct: Lyophilized powder (1 g) of rabbit lungs (product of Pel-Freez Biologicals Company) was extracted; tissue Pel-Freez Biologicals Company; host or cells: rabbit lungs, lyophilized powder; 40,000 g supernatant of a phosphate buffer extract
T1 sequence (P12822 34-1310): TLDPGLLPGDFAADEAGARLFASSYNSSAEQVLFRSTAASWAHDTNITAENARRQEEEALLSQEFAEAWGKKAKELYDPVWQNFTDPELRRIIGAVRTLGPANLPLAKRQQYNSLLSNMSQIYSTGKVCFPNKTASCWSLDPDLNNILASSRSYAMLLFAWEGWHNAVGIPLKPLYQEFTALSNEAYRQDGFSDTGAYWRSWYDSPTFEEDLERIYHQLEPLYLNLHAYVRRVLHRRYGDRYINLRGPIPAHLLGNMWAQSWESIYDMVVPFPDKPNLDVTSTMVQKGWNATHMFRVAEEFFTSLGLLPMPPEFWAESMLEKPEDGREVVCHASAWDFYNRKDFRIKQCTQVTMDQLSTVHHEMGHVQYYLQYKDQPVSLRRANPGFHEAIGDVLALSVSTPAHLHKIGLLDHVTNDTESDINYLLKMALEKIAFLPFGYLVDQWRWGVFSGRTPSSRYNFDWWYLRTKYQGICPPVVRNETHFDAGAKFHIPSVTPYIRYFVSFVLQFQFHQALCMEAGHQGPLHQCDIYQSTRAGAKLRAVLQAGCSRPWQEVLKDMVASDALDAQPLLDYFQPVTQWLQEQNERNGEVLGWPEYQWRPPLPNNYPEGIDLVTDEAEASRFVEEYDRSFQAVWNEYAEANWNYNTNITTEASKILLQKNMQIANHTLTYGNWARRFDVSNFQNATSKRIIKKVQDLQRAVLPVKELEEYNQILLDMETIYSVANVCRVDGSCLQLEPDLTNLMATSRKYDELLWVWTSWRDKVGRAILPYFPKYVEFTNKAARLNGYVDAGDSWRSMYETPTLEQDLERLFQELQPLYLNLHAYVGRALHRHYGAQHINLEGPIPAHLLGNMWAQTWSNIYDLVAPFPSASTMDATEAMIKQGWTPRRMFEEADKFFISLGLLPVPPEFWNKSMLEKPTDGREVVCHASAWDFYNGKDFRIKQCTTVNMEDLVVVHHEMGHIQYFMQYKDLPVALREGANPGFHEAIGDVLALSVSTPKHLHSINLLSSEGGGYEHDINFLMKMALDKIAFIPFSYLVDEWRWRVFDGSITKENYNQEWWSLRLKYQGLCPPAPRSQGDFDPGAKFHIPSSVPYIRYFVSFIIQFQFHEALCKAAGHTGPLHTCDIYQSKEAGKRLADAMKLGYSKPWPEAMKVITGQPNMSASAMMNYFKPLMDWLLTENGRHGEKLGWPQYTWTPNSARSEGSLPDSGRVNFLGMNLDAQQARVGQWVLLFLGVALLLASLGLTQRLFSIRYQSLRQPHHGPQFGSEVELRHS
Experimental: (§1) The ACE inhibitory activities of the certain compounds (I) of this invention were determined by measuring their ACE activities in accordance with the method reported by Neels et al. [Clinical Chemistry, 29, 1399 (1983)].
(§2) Lyophilized powder (1 g) of rabbit lungs (product of Pel-Freez Biologicals Company) was extracted with 10 ml of a 50 mM buffer of potassium phosphate (pH 8.3) and a centrifugation supernatant (40,000 g×40 minutes) was used as an enzyme solution. Each test compound was dissolved at a concentration of 1 mg/ml in water, methanol or dimethyl sulfoxide depending on its solubility, followed by dilution with water to provide test solutions.
(§3) Added to 10 μl of each of the test solutions of various concentrations was 100 μl of a mixed reactant (pH 8.3) containing 50 mM of N-2-hydroxyethylpiperazine-N'-2-ethanesulfonic acid (HEPES), 300 mM of NaCl, 400 mM of Na2 SO4 and 30 mM of hippurylglycylglycine, followed by an addition of 10 μl of the enzyme solution to conduct a reaction at 37° C. for 30 minutes. To the reaction mixture, 100 μl of a sodium tungstate solution (100 g/l) and 100 μl of 0.33M sulfuric acid were added to terminate the reaction, followed by a further addition of 1 ml of water. The resultant mixture was centrifuged to collect 750 μl of a supernatant, to which 1 ml of a 100 mM borate buffer (pH 9.6) was added. Added further was 50 μl of a 60 mM solution of sodium 2,4,6-tri-nitrobenzenesulfonate. After warming the mixture at 37° C. for 15 minutes, its absorbance was measured at 420 nm. The inhibition rates at the various concentrations were calculated and IC50 was then determined by a method known per se in the art.

[2] = biological target: T1, Angiotensin Converting Enzyme (ACE); test: ACE inhibitory activity after incubation in rat plasma (Method 2); format: biochemical, rabbit; conditions: pre-incubated in rat plasma at 37° C. for 1 hour, dihydrochlorides, read-out: ACE inhibitory activity concentration (IC50)
Experimental: as §1, §2, §3
Mixed to 1800 μl of rat plasma was 200 μl of each test solution, followed by incubation at 37° C. for 1 hour. The resulting mixture was then diluted with a 0.1M Tris-HCl buffer (pH 8.3). The procedure of Method 1 was thereafter followed to measure the ACE inhibitory activity.

Row | IC50 [1] [nM] | IC50 [2] [nM] | Compound
1 | 7 |  | CCCCCCC1CC(N[C@@H](C)C(=O)N2CCC[C@H]2C(=O)O)C(=O)O1 (single isomer, unassigned) [Compound 14, N-(2-oxo-5-hexyl-3-tetrahydrofuranyl)-L-alanyl-L-proline]
2 | 7.3 |  | CCCCCC1CC(N[C@@H](C)C(=O)N2CCC[C@H]2C(=O)O)C(=O)O1 (single isomer, unassigned) [Compound 19, N-(2-oxo-5-pentyl-3-tetrahydrofuranyl)-L-alanyl-L-proline]
3 | 5.8 |  | CCCCCCCC1CC(N[C@@H](C)C(=O)N2CCC[C@H]2C(=O)O)C(=O)O1 (single isomer, unassigned) [Compound 20, N-(2-oxo-5-heptyl-3-tetrahydrofuranyl)-L-alanyl-L-proline]
4 | 2.9 |  | CCCCCCCCC1CC(N[C@@H](C)C(=O)N2CCC[C@H]2C(=O)O)C(=O)O1 (single isomer, unassigned) [Compound 21, N-(2-oxo-5-octyl-3-tetrahydrofuranyl)-L-alanyl-L-proline]
5 | 3 |  | CCCCCCCCCCC1CC(N[C@@H](C)C(=O)N2CCC[C@H]2C(=O)O)C(=O)O1 (single isomer, unassigned) [Compound 22, N-(2-oxo-5-decanyl-3-tetrahydrofuranyl)-L-alanyl-L-proline]
6 |  | 4.7 | CCCCCCC1CC(N[C@@H](CCCCN)C(=O)N2CCC[C@H]2C(=O)O)C(=O)O1 (single isomer, unassigned) [Compound 35, N^α -(2-oxo-5-hexyl-3-tetrahydrofuranyl)-L-lysyl-L-proline]
7 |  | 5.7 | CCCCC1CC(N[C@@H](CCCCN)C(=O)N2CCC[C@H]2C(=O)O)C(=O)O1 (single isomer, unassigned) [Compound 37, N^α -(2-oxo-5-butyl-3-tetrahydrofuranyl)-L-lysyl-L-proline]
8 |  | 4 | CCCCCC1CC(N[C@@H](CCCCN)C(=O)N2CCC[C@H]2C(=O)O)C(=O)O1 (single isomer, unassigned) [Compound 38, N^α -(2-oxo-5-pentyl-3-tetrahydrofuranyl)-L-lysyl-L-proline]
9 | 14 |  | C[C@H](N[C@H]1CC(c2ccccc2)OC1=O)C(=O)N1CCC[C@H]1C(=O)O (stereo partly drawn) [Comparative compound, reference compound]
